SMILES strings stand for the structures.

This assay can be described thus: Inhibition of LFA1:CD11a/CD18/ICAM1-mediated human HL60 cell adhesion to human HeLa cells expressing ICAM1 by fluorescence analysis.
In general, IC50 refers to the concentration at which inhibition is half-maximal. As for `C=C1[C@@H](C)[C@H]2[C@H](Cc3ccccc3)NC(=O)[C@]23OC(=O)/C=C/[C@H](O)CCC[C@@H](C)C/C=C/[C@H]3[C@@H]1O` [CHEBI:23527], the IC50 was 11.4 µM.

As for `CC[C@H]1CN2CCc3cc(OC)c(OC)cc3[C@@H]2C[C@@H]1C[C@H]1NCCc2cc(OC)c(OC)cc21` [6',7',10,11-tetramethoxyemetan], the IC50 was > 104 µM.

In the case of `CC[C@H]1CN2CCc3cc(OC)c(OC)cc3[C@@H]2C[C@@H]1C[C@H]1NCCc2cc(O)c(OC)cc21` [CHEBI:3533], the IC50 is > 21.4 µM.
